± gives the expanded uncertainty stated by the source.
Test: activity coefficient (dimensionless); of the first substance listed, at infinite dilution; xn = mol fraction of the nth substance listed
Settings: Liquid, Chromatography, x1 = 0

Row | activity coefficient (298.15 K) | activity coefficient (308.15 K) | activity coefficient (318.15 K) | activity coefficient (328.15 K) | activity coefficient (338.15 K) | activity coefficient (348.15 K) | activity coefficient (358.15 K) | activity coefficient (368.15 K) | activity coefficient (298.15 K, 101 kPa) | activity coefficient (308.15 K, 101 kPa) | activity coefficient (318.15 K, 101 kPa) | activity coefficient (328.15 K, 101 kPa) | activity coefficient (338.15 K, 101 kPa) | activity coefficient (348.15 K, 101 kPa) | activity coefficient (358.15 K, 101 kPa) | activity coefficient (368.15 K, 101 kPa) | SMILES
1 | 81.1 ± 5.6 | 73.7 ± 5.1 | 68.5 ± 4.7 | 62.3 ± 4.3 | 58 ± 4 | 54.8 ± 3.8 | 52.4 ± 3.6 |  |  |  |  |  |  |  |  |  | C=CCCCCC [1-heptene] + CCCCn1cc[n+](C)c1.N#C[S-]
2 | 9.88 ± 0.67 | 9.92 ± 0.68 | 10.1 ± 0.69 | 10.2 ± 0.7 | 10.2 ± 0.7 | 10.3 ± 0.7 | 10.4 ± 0.71 |  |  |  |  |  |  |  |  |  | C#CCCCCC [1-heptyne] + CCCCn1cc[n+](C)c1.N#C[S-]
3 | 6.42 ± 0.44 | 6.45 ± 0.44 | 6.59 ± 0.45 | 6.65 ± 0.45 | 6.76 ± 0.46 | 6.87 ± 0.47 | 6.95 ± 0.47 |  |  |  |  |  |  |  |  |  | C#CCCCC [1-hexyne] + CCCCn1cc[n+](C)c1.N#C[S-]
4 | 15.2 ± 1 | 15.1 ± 1 | 15.4 ± 1.1 | 15.3 ± 1 | 15.3 ± 1 | 15.3 ± 1 | 15.3 ± 1 |  |  |  |  |  |  |  |  |  | C#CCCCCCC [1-octyne] + CCCCn1cc[n+](C)c1.N#C[S-]
5 | 52.3 ± 3.6 | 46.4 ± 3.2 | 41.5 ± 2.8 | 35.4 ± 2.4 | 32.6 ± 2.2 | 30.6 ± 2.1 | 27.6 ± 1.9 |  |  |  |  |  |  |  |  |  | C=CCCC [1-pentene] + CCCCn1cc[n+](C)c1.N#C[S-]
6 | 4.6 ± 0.31 | 4.68 ± 0.32 | 4.71 ± 0.32 | 4.73 ± 0.32 | 4.79 ± 0.33 | 4.85 ± 0.33 | 4.97 ± 0.34 |  |  |  |  |  |  |  |  |  | C#CCCC [1-pentyne] + CCCCn1cc[n+](C)c1.N#C[S-]
7 | 12.8 ± 0.59 | 12.4 ± 0.57 | 11.9 ± 0.55 | 11.4 ± 0.52 | 11.1 ± 0.51 | 10.7 ± 0.49 | 10.6 ± 0.49 |  |  |  |  |  |  |  |  |  | COC(C)(C)C [2-methoxy-2-methylpropane] + CCCCn1cc[n+](C)c1.N#C[S-]
8 | 2.13 ± 0.14 | 2.15 ± 0.15 | 2.17 ± 0.15 | 2.18 ± 0.15 | 2.2 ± 0.15 | 2.22 ± 0.15 | 2.25 ± 0.15 | 2.27 ± 0.15 |  |  |  |  |  |  |  |  | c1ccccc1 [benzene] + CCCCn1cc[n+](C)c1.N#C[S-]
9 |  | 1.32 ± 0.09 | 1.25 ± 0.08 | 1.21 ± 0.08 | 1.16 ± 0.07 | 1.13 ± 0.07 | 1.1 ± 0.07 | 1.08 ± 0.07 |  |  |  |  |  |  |  |  | CCCCO [butan-1-ol] + CCCCn1cc[n+](C)c1.N#C[S-]
10 | 56.6 ± 3.9 | 51 ± 3.5 | 46.5 ± 3.2 | 42 ± 2.9 | 38.9 ± 2.7 | 36.1 ± 2.5 | 33.7 ± 2.3 |  |  |  |  |  |  |  |  |  | C1CCCCCC1 [cycloheptane] + CCCCn1cc[n+](C)c1.N#C[S-]
11 | 62.3 ± 4.3 | 53.5 ± 3.7 | 47.1 ± 3.2 | 41.1 ± 2.8 | 36.8 ± 2.5 | 33.5 ± 2.3 | 31.1 ± 2.1 |  |  |  |  |  |  |  |  |  | C1CCCCC1 [cyclohexane] + CCCCn1cc[n+](C)c1.N#C[S-]
12 | 70 ± 4.8 | 63.1 ± 4.3 | 57.8 ± 4 | 53.2 ± 3.6 | 48.6 ± 3.3 | 45 ± 3.1 | 41.9 ± 2.9 |  |  |  |  |  |  |  |  |  | C1CCCCCCC1 [cyclooctane] + CCCCn1cc[n+](C)c1.N#C[S-]
13 | 46.9 ± 3.2 | 39.7 ± 2.7 | 34.9 ± 2.4 | 30 ± 2.1 | 26.8 ± 1.8 | 24.2 ± 1.7 | 23.1 ± 1.6 |  |  |  |  |  |  |  |  |  | C1CCCC1 [cyclopentane] + CCCCn1cc[n+](C)c1.N#C[S-]
14 | 628 ± 43 | 581 ± 40 | 533 ± 26 | 470 ± 23 | 426 ± 20 | 386 ± 19 | 351 ± 17 |  |  |  |  |  |  |  |  |  | CCCCCCCCCC [decane] + CCCCn1cc[n+](C)c1.N#C[S-]
15 | 0.743 ± 0.049 | 0.709 ± 0.047 | 0.69 ± 0.046 | 0.671 ± 0.045 | 0.655 ± 0.045 | 0.643 ± 0.044 | 0.631 ± 0.044 | 0.623 ± 0.043 |  |  |  |  |  |  |  |  | CCO [ethanol] + CCCCn1cc[n+](C)c1.N#C[S-]
16 | 5.86 ± 0.4 | 5.9 ± 0.4 | 5.93 ± 0.4 | 5.86 ± 0.4 | 5.93 ± 0.4 | 5.83 ± 0.4 | 5.82 ± 0.4 | 5.81 ± 0.4 |  |  |  |  |  |  |  |  | CCc1ccccc1 [ethylbenzene] + CCCCn1cc[n+](C)c1.N#C[S-]
17 | 281 ± 19 | 245 ± 17 | 213 ± 15 | 183 ± 13 | 162 ± 11 | 146 ± 10 | 132 ± 9 |  |  |  |  |  |  |  |  |  | CCCCCCC [heptane] + CCCCn1cc[n+](C)c1.N#C[S-]
18 | 61.6 ± 4.2 | 54.8 ± 3.8 | 50.2 ± 3.4 | 44.9 ± 3.1 | 41.4 ± 2.8 | 38.3 ± 2.6 | 36.4 ± 2.5 |  |  |  |  |  |  |  |  |  | C=CCCCC [hex-1-ene] + CCCCn1cc[n+](C)c1.N#C[S-]
19 | 226 ± 16 | 189 ± 13 | 167 ± 11 | 143 ± 10 | 126 ± 9 | 108 ± 7 | 100 ± 7 |  |  |  |  |  |  |  |  |  | CCCCCC [hexane] + CCCCn1cc[n+](C)c1.N#C[S-]
20 | 0.416 ± 0.035 | 0.396 ± 0.034 | 0.396 ± 0.034 | 0.391 ± 0.034 | 0.387 ± 0.034 | 0.386 ± 0.033 | 0.383 ± 0.033 | 0.382 ± 0.033 |  |  |  |  |  |  |  |  | CO [methanol] + CCCCn1cc[n+](C)c1.N#C[S-]
21 | 459 ± 32 | 414 ± 28 | 376 ± 26 | 332 ± 23 | 298 ± 20 | 272 ± 19 | 252 ± 17 |  |  |  |  |  |  |  |  |  | CCCCCCCCC [nonane] + CCCCn1cc[n+](C)c1.N#C[S-]
22 | 111 ± 8 | 102 ± 7 | 96.3 ± 6.6 | 88.1 ± 6 | 82.5 ± 5.7 | 77.6 ± 5.3 | 73.8 ± 5.1 |  |  |  |  |  |  |  |  |  | C=CCCCCCC [oct-1-ene] + CCCCn1cc[n+](C)c1.N#C[S-]
23 | 350 ± 24 | 311 ± 21 | 279 ± 19 | 243 ± 17 | 218 ± 15 | 198 ± 14 | 180 ± 12 |  |  |  |  |  |  |  |  |  | CCCCCCCC [octane] + CCCCn1cc[n+](C)c1.N#C[S-]
24 |  |  | 1.62 ± 0.11 | 1.54 ± 0.1 | 1.5 ± 0.1 | 1.47 ± 0.1 | 1.45 ± 0.1 | 1.44 ± 0.09 |  |  |  |  |  |  |  |  | CCCCCO [pentan-1-ol] + CCCCn1cc[n+](C)c1.N#C[S-]
25 |  | 0.93 ± 0.06 | 0.9 ± 0.06 | 0.87 ± 0.06 | 0.84 ± 0.05 | 0.83 ± 0.05 | 0.81 ± 0.05 | 0.8 ± 0.05 |  |  |  |  |  |  |  |  | CCCO [propan-1-ol] + CCCCn1cc[n+](C)c1.N#C[S-]
26 |  |  |  |  |  |  |  |  | 2 ± 0.14 | 1.98 ± 0.13 | 1.99 ± 0.14 | 1.99 ± 0.14 | 1.99 ± 0.14 | 1.99 ± 0.14 | 1.99 ± 0.14 | 2.01 ± 0.14 | C1CCOC1 [tetrahydrofuran] + CCCCn1cc[n+](C)c1.N#C[S-]
27 | 1.21 ± 0.078 | 1.24 ± 0.08 | 1.26 ± 0.081 | 1.27 ± 0.082 | 1.29 ± 0.084 | 1.32 ± 0.085 | 1.33 ± 0.086 | 1.36 ± 0.089 |  |  |  |  |  |  |  |  | c1ccsc1 [thiophene] + CCCCn1cc[n+](C)c1.N#C[S-]

Row | SMILES | activity coefficient (298.15 K) | activity coefficient (308.15 K) | activity coefficient (318.15 K) | activity coefficient (328.15 K) | activity coefficient (338.15 K) | activity coefficient (348.15 K) | activity coefficient (358.15 K) | activity coefficient (368.15 K) | activity coefficient (298.15 K, 101 kPa) | activity coefficient (308.15 K, 101 kPa) | activity coefficient (318.15 K, 101 kPa) | activity coefficient (328.15 K, 101 kPa) | activity coefficient (338.15 K, 101 kPa) | activity coefficient (348.15 K, 101 kPa) | activity coefficient (358.15 K, 101 kPa) | activity coefficient (368.15 K, 101 kPa)
28 | Cc1ccccc1C [1,2-dimethylbenzene] + CCCCn1cc[n+](C)c1.N#C[S-] | 4.58 ± 0.31 | 4.64 ± 0.32 | 4.71 ± 0.32 | 4.69 ± 0.32 | 4.71 ± 0.32 | 4.75 ± 0.32 | 4.78 ± 0.33 | 4.81 ± 0.33 |  |  |  |  |  |  |  | 
29 | Cc1cccc(C)c1 [1,3-dimethylbenzene] + CCCCn1cc[n+](C)c1.N#C[S-] | 5.92 ± 0.4 | 5.91 ± 0.4 | 5.98 ± 0.41 | 5.96 ± 0.41 | 5.96 ± 0.41 | 5.97 ± 0.41 | 5.99 ± 0.41 | 5.96 ± 0.41 |  |  |  |  |  |  |  | 
30 | Cc1ccc(C)cc1 [1,4-dimethylbenzene] + CCCCn1cc[n+](C)c1.N#C[S-] | 5.51 ± 0.38 | 5.54 ± 0.38 | 5.59 ± 0.38 | 5.6 ± 0.38 | 5.63 ± 0.38 | 5.68 ± 0.39 | 5.72 ± 0.39 | 5.75 ± 0.39 |  |  |  |  |  |  |  | 
31 | Cc1ccccc1 [toluene] + CCCCn1cc[n+](C)c1.N#C[S-] | 3.4 ± 0.23 | 3.48 ± 0.24 | 3.52 ± 0.24 | 3.53 ± 0.24 | 3.55 ± 0.24 | 3.59 ± 0.24 | 3.62 ± 0.25 | 3.65 ± 0.25 |  |  |  |  |  |  |  | 

— the NIST ThermoML archive (doi:10.1016/j.jct.2008.12.018)
